Test results: ChEMBL document CHEMBL1143517, “Synthesis and in vitro leishmanicidal activity of 2-(5-nitro-2-furyl) and 2-(5-nitro-2-thienyl)-5-substituted-1,3,4-thiadiazoles” (Bioorg Med Chem Lett, 2005)

Tested on: Leishmania major
Test: In vitro inhibition of growth of Leishmania major promastigotes with the compound dissolved in DMSO using 3-H thymidine incorporation
Type: functional, organism-based

Row | SMILES | IC50
1 | CC(=O)N1CCN(c2nnc(-c3ccc([N+](=O)[O-])s3)s2)CC1 | 48.5 µM
2 | O=[N+]([O-])c1ccc(-c2nnc(N3CCN(c4ccccc4)CC3)s2)o1 | 0.1 µM
3 | O=[N+]([O-])c1ccc(-c2nnc(N3CCCCC3)s2)o1 | 3.2 µM
4 | O=C(c1ccccc1)N1CCN(c2nnc(-c3ccc([N+](=O)[O-])o3)s2)CC1 | 0.5 µM
5 | O=[N+]([O-])c1ccc(-c2nnc(N3CCOCC3)s2)s1 | 10.6 µM
6 | O=[N+]([O-])c1ccc(-c2nnc(N3CCOCC3)s2)o1 | 5.2 µM
7 | CN1CCN(c2nnc(-c3ccc([N+](=O)[O-])o3)s2)CC1 | 7.3 µM
8 | O=[N+]([O-])c1ccc(-c2nnc(N3CCN(c4ccccc4)CC3)s2)s1 | 106 µM
9 | CN1CCN(c2nnc(-c3ccc([N+](=O)[O-])s3)s2)CC1 | 103 µM
10 | CC(=O)N1CCN(c2nnc(-c3ccc([N+](=O)[O-])o3)s2)CC1 | 1.1 µM
11 | O=[N+]([O-])c1ccc(-c2nnc(N3CCCCC3)s2)s1 | > 150 µM
12 | O=[N+]([O-])c1ccc(-c2nnc(N3CCNCC3)s2)s1 | > 150 µM
13 | O=C(c1ccccc1)N1CCN(c2nnc(-c3ccc([N+](=O)[O-])s3)s2)CC1 | 11.1 µM
14 | O=[N+]([O-])c1ccc(-c2nnc(N3CCNCC3)s2)o1 | 8.9 µM
